According to patent US20210290597A1, “METHOD OF TREATING A CONDITION ASSOCIATED WITH NEURODEGENERATION USING INHIBITORS OF OAT3” (Neuropore Therapies, Inc., priority 2018, published 2021):
Like-named read-outs stand apart in the source and are kept apart here.

What was measured:
OAT3 = molecular target: T1, OAT3 (Homo sapiens, UniProt Q8TCC7); test: Further OAT3 uptake inhibition assay (Table 2); format: cell-based; conditions: human, MDCK-II cells expressing human OAT3, probe 10 μM PAH (p-aminohippurate); compound 1 μM; PAH 10 μM; mean and SD of triplicate
T1 construct: expressed in transfected cells; host or cells: MDCK-II
T1 sequence (Q8TCC7 1-542): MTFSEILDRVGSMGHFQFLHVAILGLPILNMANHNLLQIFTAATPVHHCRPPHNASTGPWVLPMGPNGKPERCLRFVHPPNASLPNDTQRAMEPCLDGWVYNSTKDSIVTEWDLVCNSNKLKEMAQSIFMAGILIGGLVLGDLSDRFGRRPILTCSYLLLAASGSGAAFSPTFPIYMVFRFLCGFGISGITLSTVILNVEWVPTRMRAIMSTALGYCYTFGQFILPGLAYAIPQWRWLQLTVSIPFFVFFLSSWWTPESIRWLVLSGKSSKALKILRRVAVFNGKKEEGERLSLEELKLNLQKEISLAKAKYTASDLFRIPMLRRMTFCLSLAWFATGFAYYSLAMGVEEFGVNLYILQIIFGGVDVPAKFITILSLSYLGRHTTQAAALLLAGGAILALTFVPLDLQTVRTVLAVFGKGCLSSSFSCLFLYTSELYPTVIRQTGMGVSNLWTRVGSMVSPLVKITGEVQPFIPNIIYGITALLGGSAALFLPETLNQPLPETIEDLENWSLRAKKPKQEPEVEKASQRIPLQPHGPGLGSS
Experimental: (§1) In a further assay, the effects of several other compounds (including compounds 2, 3, and 4) were assessed against OAT3. The assay was carried out using a similar procedure as described above, using para-aminohippurate (PAH) and estrone-3-sulfate (E3S) as the substrates for measuring OAT3-mediated transport. […] MDCK-II cells were grown in 96-well cell culture plates, and the cell plates are maintained at 37° C. in 5% CO2 atmosphere prior to initiation of the transport experiment. MDCK-II cells were maintained in DMEM with low glucose and 10% FBS. Cells passages up to 40 are seeded at 60K±10K cells/well on 96-well, transwell membrane plates approximately 24 hours before transfection. Transport assays were carried out approximately 48 hours after transfection. Radio-labeled para-aminohippurate ([3H]-PAH) and estrone-3-sulfate (E3S) were used as substrates for measuring OAT3-mediated transport, where the transport of the substrate was determined by radiometric detection. Probenecid was used as a reference inhibitor. Transport study samples were run in triplicate.
(§2) For uptake assays, the net transporter-mediated uptake rate (V) of the substrate by each SLC transporter was calculated as follows:
(§3) Transporter-mediated uptake rate(pmol/min/cm^2)=((Cellular accumulation in cells expressing the transporter)−(Mean cellular accumulation in control cells))/Incubation time.
(§4) Percent inhibition was calculated by dividing the transporter-mediated uptake rate in presence of the test article or the reference inhibitor by the transporter-mediated uptake rate in presence of vehicle control:
(§5) Percent inhibition=100−(100×(transporter-mediated uptake rate)with inhibitor/(transporter-mediated uptake rate)vehicle control)
(§6) For uptake assays, statistical analyses using an unpaired t test was performed between transporter-mediated uptake rate or ATP-dependent transport rate of probe substrate with vehicle control and the inhibitor. A p value of <0.05 was considered statistically significant.
(§7) Table 2 summarizes the inhibitory activity of these compounds against OAT3 in the uptake of probe substrate PAH (p-aminohippurate) or E3S (estrone-3-sulfate). The percent inhibition values were determined by testing compounds at a single concentration of 1 μM with a PAH concentration of 10 μM. Data represent the mean and standard deviation of triplicate samples. The IC50 values were calculated by means of a concentration response curve with a compound concentration range of 0.03-10 μM and a probe substrate concentration of 10 μM PAH or 0.1 μM E3S. The percent inhibition at the various concentrations was run in triplicate and the IC50 value was determined by non-linear regression using GraphPad Prism.

human transporter OAT3 = molecular target: T2, human transporter OAT3 (Homo sapiens, UniProt Q8TCC7); test: Further OAT3 uptake inhibition assay (Table 2); format: cell-based; conditions: compound 0.03-10 μM
T2 construct: expressed in transfected cells; host or cells: MDCK-II
T2 sequence (Q8TCC7 1-542): T1 sequence (Q8TCC7 1-542)
Experimental: as §1, §2, §3, §4, §5, §6, §7

[1] = 0.1 μM E3S, read-out: OAT3 inhibition substrate = E3S (IC50)
[2] = 10 μM PAH, read-out: OAT3 inhibition substrate = PAH (IC50)

| inhibition at 1 μM (OAT3) [%] | IC50 (human transporter OAT3; [1]) [µM] | IC50 (human transporter OAT3; [2]) [µM] | SMILES |
| --- | --- | --- | --- |
| 48 | 1.9 | 1.36 | O=S(=O)(c1ccc(-n2cn[nH]c2=S)c(N2CCOCC2)c1)c1ccc(Cl)c(C(F)(F)F)c1 [Compound 2, 4-(4-((4-chloro-3-(trifluoromethyl)phenyl)sulfonyl)-2-morpholinophenyl)-2,4-dihydro-3H-1,2,4-triazole-3-thione] |
| 86.5 | – | – | Cc1cc(S(=O)(=O)c2ccc(-n3cn[nH]c3=S)cc2)ccc1Cl [Compound 5, 4-(4-((4-chloro-3-methylphenyl)sulfonyl)phenyl)-2,4-dihydro-3H-1,2,4-triazole-3-thione] |
| 58.6 | – | – | O=S(=O)(c1ccc(-n2cn[nH]c2=S)cc1)c1cccc(C(F)(F)F)c1 [Compound 11, 4-(4-((3-(trifluoromethyl)phenyl)sulfonyl)phenyl)-2,4-dihydro-3H-1,2,4-triazole-3-thione] |
| 43 | – | – | O=S(=O)(c1ccc(-n2cn[nH]c2=S)c(N2CCCCC2)c1)c1ccc(Cl)c(C(F)(F)F)c1 [Compound 19, 4-(4-((4-chloro-3-(trifluoromethyl)phenyl)sulfonyl)-2-(piperidin-1-yl)phenyl)-2,4-dihydro-3H-1,2,4-triazole-3-thione] |
| 17.2 | – | – | CN1CCN(c2cc(S(=O)(=O)c3ccc(Cl)c(C(F)(F)F)c3)ccc2-n2cn[nH]c2=S)CC1 [Compound 20, 4-(4-((4-chloro-3-(trifluoromethyl)phenyl)sulfonyl)-2-(4-methylpiperazin-1-yl)phenyl)-2,4-dihydro-3H-1,2,4-triazole-3-thione] |
| 48.2 | – | – | CCN(CC)c1cc(S(=O)(=O)c2ccc(Cl)c(C(F)(F)F)c2)ccc1-n1cn[nH]c1=S [Compound 21, 4-(4-((4-chloro-3-(trifluoromethyl)phenyl)sulfonyl)-2-(diethylamino)phenyl)-2,4-dihydro-3H-1,2,4-triazole-3-thione] |
| 79.5 | – | – | CCOCCOc1cc(S(=O)(=O)c2ccc(Cl)c(C(F)(F)F)c2)ccc1-n1cn[nH]c1=S [Compound 22, 4-(4-((4-chloro-3-(trifluoromethyl)phenyl)sulfonyl)-2-(2-ethoxyethoxy)phenyl)-2,4-dihydro-3H-1,2,4-triazole-3-thione] |
| -1.05 | – | – | O=S(=O)(c1ccc(-n2cc[nH]c2=S)cc1)c1ccc(Cl)c(C(F)(F)F)c1 [Compound 31, 1-(4-(4-chloro-3-(trifluoromethyl)phenylsulfonyl)phenyl)-1H-imidazole-2(3H)-thione] |
| 94.1 | – | – | O=S(=O)(Nc1ccc(Cl)c(C(F)(F)F)c1)c1ccc(-n2cn[nH]c2=S)cc1 [Compound 33, N-(4-chloro-3-(trifluoromethyl)phenyl)-4-(5-thioxo-1H-1,2,4-triazol-4(5H)-yl)benzenesulfonamide] |

Continued, molecule first:

| SMILES | inhibition at 1 μM (OAT3) [%] | IC50 (human transporter OAT3; [1]) [µM] | IC50 (human transporter OAT3; [2]) [µM] |
| --- | --- | --- | --- |
| O=S(=O)(c1ccccc1)c1ccc(-n2cn[nH]c2=S)cc1 [Compound 3, 4-(4-(phenylsulfonyl)phenyl)-2,4-dihydro-3H-1,2,4-triazole-3-thione] | 33.1 | – | – |
| O=S(=O)(c1ccc(Cl)cc1)c1ccc(-n2cn[nH]c2=S)cc1 [Compound 4, 4-(4-((4-chlorophenyl)sulfonyl)phenyl)-2,4-dihydro-3H-1,2,4-triazole-3-thione] | 76.3 | – | – |
| COc1cccc(S(=O)(=O)c2ccc(-n3cn[nH]c3=S)cc2)c1 [Compound 12, 4-(4-((3-methoxyphenyl)sulfonyl)phenyl)-2,4-dihydro-3H-1,2,4-triazole-3-thione] | 48.4 | – | – |
| CN(C)c1cccc(S(=O)(=O)c2ccc(-n3cn[nH]c3=S)cc2)c1 [Compound 15, 4-(4-((3-(dimethylamino)phenyl)sulfonyl)phenyl)-2,4-dihydro-3H-1,2,4-triazole-3-thione] | 60.1 | – | – |
| CSc1nncn1-c1ccc(S(=O)(=O)c2ccc(Cl)c(C(F)(F)F)c2)cc1 [Compound 26, 4-(4-((4-chloro-3-(trifluoromethyl)phenyl)sulfonyl)phenyl)-3-(methylthio)-4H-1,2,4-triazole] | 9.78 | 8.63 | 7.67 |
| FC(F)(F)c1cc(Oc2ccc(-n3cn[nH]c3=S)cc2)ccc1Cl [Compound 30, 4-(4-(4-chloro-3-(trifluoromethyl)phenoxy)phenyl)-2,4-dihydro-3H-1,2,4-triazole-3-thione] | 86.3 | – | – |
| O=c1[nH]ccn1-c1ccc(S(=O)(=O)c2ccc(Cl)c(C(F)(F)F)c2)cc1 [Compound 32, 1-(4-((4-chloro-3-(trifluoromethyl)phenyl)sulfonyl)phenyl)-1,3-dihydro-2H-imidazol-2-one] | -9.18 | – | – |
| CS(=O)(=O)N1CCN(Cc2nnc(Nc3ccc(S(=O)(=O)c4ccc(Cl)cc4)cc3)s2)CC1 [Compound X1] | – | > 30 | > 30 |
| Nc1ncc(-c2cc(N3CCOCC3)cc(S(=O)(=O)c3ccccc3)c2)cn1 [Compound X2] | – | > 30 | > 30 |
